According to patent publication US20090215895A1, “Therapeutic and carrier molecules” (PEPLIN BIOLIPIDS PTY LTD, priority 2004, published 2009):

Tests used:
[1] = LPS-induced influx of neutrophils and mononuclear cells in the peritoneal cavity; assay type: in vivo, BALB/c mice; conditions: 40 mg/kg intravenously, 6 hr before LPS
Experimental: FIG. 14 is a representation showing (A) effect of MP3 on in vivo inflammatory response measured as delayed type hypersensitivity (DTH) to sheep erythrocytes and LPS-induced influx of neutrophils and mononuclear cells in the peritoneal cavity in BALB/c mice. In the DTH experiments mice were injected with sheep erythrocytes subcutaneously, challenged with the antigen in the hind foot pad 6 days later and the amount of foot pad swelling measured 48 hr later. One hour prior to challenge mice were given 10 mg/kg body weight of β-oxa fatty acid in 7% w/v, DMSO as vehicle intraperitoneally. […] The data, expressed as % of control, are presented as mean±SEM of 10 and 5 mice for DTH and peritoneal inflammation, respectively. […] The data, expressed as % of control, are presented as mean±SEM of ten mice per group and is representative of two experimental runs. […]
Effect of MP3 (β-oxa-23:4n-6) on the in vivo inflammatory response was measured as a delayed type hypersensitivity (DTH) reaction and LPS-induced influx of neutrophils and mononuclear cells in the peritoneal cavity in BALB/c mice. For DTH experiments, mice were injected subcutaneously with 100 μl of 10% hematocrit sheep erythrocytes, challenged with the antigen (25 μl of 40%) in the hind foot pad 6 days later and the degree of foot pad swelling measured 48 hr later (Ferrante et al, Clin. & Exp. Immunol. 38:70-76, 1979). […]

IκBα = assay: TNF-induced degradation of IκBα in HUVEC (Western blot); assay type: cell-based; conditions: Homo sapiens, 20 μmol/l, 30 min pre-treatment, TNF 10 min
Experimental: FIG. 17 is a representation showing (A) the effect of MP3 (β-oxa 23:4n-6) and DHA on TNF-induced degradation of IκBα in HUVEC. Cells were pre-treated with the fatty acids (20 μmol/l) for 30 min and then stimulated with TNF (125 U/ml) for 10 min. After cell lysis the proteins were analyzed by Western blots using anti-IκBα antibodies. (B) The effects of β-oxa-23:4n-6 on TNF-induced activation of transcriptional factor, NFκB in HUVEC. Cells were pre-treated with β-oxa-23:4n-6 (20 μmol/l) for 30 min and then stimulated with TNF for 2 hr. After cell lysis, nuclear fractions were prepared, nuclear proteins separated by SDS PAGE (12% w/v gel), transferred to nitrocellulose and probed with an anti-NFκB p65 antibody (Santa Cruz). […] (C) The effect of β-oxa 23:4n-6 on TNF-stimulated activation of IKK. Cells were pre-treated with β-oxa 23:4n-6 (20 μmol/l) for 30 min and then stimulated with TNF for 5 min. After cell lysis IKK was immunoprecipitated with anti-IKKα antibody and kinase activity determined. […]
Proteins (50 μg) were separated by SDS PAGE (12% w/v gel), transferred to nitrocellulose and probed with an anti-NFκB p65 or anti-IκBα antibody (Santa Cruz Biotech, Santa Cruz, Calif.). Immunocomplexes were detected by enhanced chemiluminescence (Hii et al, 1998 supra).

E-selectin = assay: Adhesion molecule expression on HUVEC (ELISA, mRNA slot blot); assay type: cell-based, human; conditions: for Suppression of TNF-α-induced E-selectin expression on HUVEC: 60 min pre-treatment
Experimental: FIG. 13 is a representation showing effect of MP3 (β-oxa-23:4n-6) and 20:4n-6 on time-related changes in TNF-α-induced E-selectin, ICAM-1 and VCAM-1 expression on HUVEC. HUVEC were pre-treated with 20 μmol/l β-oxa-23:4n-6 (closed triangles), 20 μmol/l 20:4n-6 (open squares), or DPC (control) for 60 min and then further incubated with TNF-α (125 U/200 μl medium) for up to 24 hr. The expression of E-selectin, ICAM-1 and VCAM-1 adhesion molecules was determined by ELISA. The results are expressed as % of control and represent the mean±SEM of three separate experiments each performed in triplicate. * p<0.05, **p<0.01, ***p<0.001, for significant differences between pre-treatment with fatty acid and corresponding control at a particular time point (one-way analysis of variance followed by the Dunnett test for multiple comparisons). Inset: The effect of β-oxa-23:4n-6 on TNF-α-induced expression of E-selectin mRNA in HUVEC. HUVEC were pre-incubated with β-oxa-23:4n-6 (20 μmol/l) or DPC (control) in 1 ml of medium at 37° C. for 60 min. After the addition of TNF-α, the cells were further incubated at 37° C. for 2 hr. E-selectin mRNA expression was then determined and the results expressed as relative %. Results are the mean±SEM of three separate experiments each performed in quadruplicate. *p<0.0001, for significant differences between pre-treatment with β-oxa-23:4n-6, and control (two-tailed Student's t-test for unpaired data).
HUVEC were stimulated with TNF, bacterial lipopolysaccharide (LPS) or PMA for 24 hr. Expression of E-selectin, ICAM-1 and VCAM-1 was determined by an enzyme-linked immunosorbent assay (ELISA) or as mRNA using a slot blot technique (Huang et al 1997 supra).

CCCCC/C=C\C/C=C\C/C=C\C/C=C\CCCCOCC(=O)O [MP3, β-oxa-23:4n-6]
LPS-induced mononuclear cell infiltrate (72 hr) [1]: inhibition of the mononuclear cell infiltrate after 72 hr | LPS-induced neutrophil influx (24 hr) [1]: inhibited the neutrophil influx | inhibition at 20 µM (IκBα): > 92% | TNF-α-induced expression of E-selectin mRNA (E-selectin; 20 μmol/l, 60 min, TNF-α 2 hr): substantially depressed | Suppression of TNF-α-induced E-selectin expression on HUVEC (E-selectin; 20 μmol/l): better than docosahexaenoic acid (22:6n-3) at suppressing | Suppression of TNF-α-induced E-selectin expression on HUVEC (E-selectin; 20 μmol/l, listed as β-oxa-23:4n-6): inhibited the expression | Time of cytokine treatment at maximum inhibition of E-selectin expression (E-selectin; 20 μmol/l, TNF-α): 4 h | Inhibition of LPS and PMA-induced up-regulation of E-selectin (E-selectin; HUVEC): inhibited LPS and PMA-induced, up-regulation
